Experimental data as given in patent publication US8486931B2, “Substituted oxindole compounds” (Abbott GmbH & Co. KG, priority 2007, dated 2013).

The compounds below were run against T1, human vasopressin V1b receptor (Homo sapiens, UniProt P47901) (assay: Vasopressin V1b receptor binding assay). Details: membranes from CHO-K1 cells with stably expressed human V1b receptors, 1.5 nM 3H-AVP displacement; with more than one stereogenic center: the diastereomer with stronger affinity.
T1 construct: expressed in transfected cells; host or cells: CHO-K1 (cell line hV1b-3H2_CHO), membrane preparation
T1 sequence (P47901 1-424): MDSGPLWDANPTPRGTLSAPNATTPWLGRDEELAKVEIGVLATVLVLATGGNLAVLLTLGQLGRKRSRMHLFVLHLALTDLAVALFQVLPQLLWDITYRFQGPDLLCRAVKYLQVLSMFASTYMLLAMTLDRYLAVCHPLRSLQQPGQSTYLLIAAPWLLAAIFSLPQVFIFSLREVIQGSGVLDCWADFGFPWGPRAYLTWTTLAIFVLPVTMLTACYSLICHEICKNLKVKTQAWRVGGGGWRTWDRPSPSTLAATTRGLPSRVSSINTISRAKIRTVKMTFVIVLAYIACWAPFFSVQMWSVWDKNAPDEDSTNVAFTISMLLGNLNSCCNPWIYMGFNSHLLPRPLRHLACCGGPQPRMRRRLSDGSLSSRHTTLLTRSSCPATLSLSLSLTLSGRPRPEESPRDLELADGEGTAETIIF
Method in brief: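 Membranes bearing human V1b receptor incubated 60 min at room temperature in 50 mM Tris, 10 mM MgCl2, 0.1% BSA, pH 7.4, 2% DMSO, triplicate.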

SMILES	Ki [nM]
CCOc1nc(Cl)ccc1C1(N2CCN(c3ccncc3)CC2)C(=O)N(S(=O)(=O)c2ccc(OC)cc2OC)c2ccc(C#N)cc21 (racemic) [Example 29, (±)-5-Cyano-3-(6-chloro-2-ethoxypyridin-3-yl)-1-(2,4-dimethoxybenzenesulfonyl)-3-(4-pyridin-4-ylpiperazin-1-yl)-2,3-dihydro-1H-indol-2-one]	10 to 50
CCOc1ccc(OC)cc1C1(N2CCN(c3ccnc(CC)c3)CC2)C(=O)N(S(=O)(=O)c2ccc(OC)c3cccnc23)c2ccc(C#N)cc21 (racemic) [Example 72, (±)-5-Cyano-3-(2-ethoxy-5-methoxyphenyl)-3-[4-(2-ethylpyridin-4-yl)piperazin-1-yl]-1-(5-methoxyquinoline-8-sulfonyl)-2,3-dihydro-1H-indol-2-one]	10 to 50
CCOc1ccc(OC)cc1C1(N2CCN(c3ccnc(C4CC4)c3)CC2)C(=O)N(S(=O)(=O)c2ccc(OC)c3cccnc23)c2ccc(C#N)cc21 (racemic) [Example 70, (±)-5-Cyano-3-[4-(2-cyclopropylpyridin-4-yl)piperazin-1-yl]-3-(2-ethoxy-5-methoxyphenyl)-1-(5-methoxyquinoline-8-sulfonyl)-2,3-dihydro-1H-indol-2-one]	< 10
CCOc1ccccc1C1(N2CCN(C3CCN(C)CC3)CC2)C(=O)N(S(=O)(=O)c2ccc(OC)cn2)c2ccc(C#N)cc21 (racemic) [Example 83, (±)-5-Cyano-3-(2-ethoxyphenyl)-1-(5-methoxypyridine-2-sulfonyl)-3-[4-(1-methyl-piperidin-4-yl)piperazin-1-yl]-2,3-dihydro-1H-indol-2-one]	10 to 50
COc1ccc(CN(C)C)cc1C1(N2CCN(c3ccncc3)CC2)C(=O)N(S(=O)(=O)c2cccc3cccnc23)c2ccc(Cl)cc21 (racemic) [Example 41, (±)-5-Chloro-3-(5-dimethylaminomethyl-2-methoxyphenyl)-3-(4-pyridin-4-ylpiperazin-1-yl)-1-(quinoline-8-sulfonyl)-1,3-dihydroindol-2-one]	10 to 50
CCOc1ccccc1C1(N2CCN(c3ccncc3)CC2)C(=O)N(S(=O)(=O)c2cccc3c(C)ccnc23)c2ccc(C#N)cc21 (single isomer, unassigned; (+)) [Example 63, (+)-5-Cyano-3-(2-ethoxyphenyl)-1-(4-methylquinoline-8-sulfonyl)-3-(4-pyridin-4-yl-piperazin-1-yl)-2,3-dihydro-1H-indol-2-one]	< 10
CCOc1ccc(OC)cc1C1(N2CCN(c3ccncc3)CC2)C(=O)N(S(=O)(=O)c2ccc(OC)c3cccnc23)c2ccc(C#N)cc21 (racemic) [Example 80, (±)-5-Cyano-3-(2-ethoxy-5-methoxyphenyl)-1-(5-methoxyquinoline-8-sulfonyl)-3-(4-pyridin-4-ylpiperazin-1-yl)-2,3-dihydro-1H-indol-2-one]	< 10
CCOc1nc(Cl)ccc1C1(N2CCN(c3ccnc(C)c3)CC2)C(=O)N(S(=O)(=O)c2ccc(OC)cn2)c2ccc(C#N)cc21 (single isomer, unassigned; (+)) [Example 151, (+)-5-Cyano-3-(6-chloro-2-ethoxy-pyridin-3-yl)-1-(5-methoxy-pyridine-2-sulfonyl)-3-[4-(2-methyl-pyridin-4-yl)-piperazin-1-yl]-2,3-dihydro-1H-indol-2-one]	< 10
CCOc1nc(Cl)ccc1C1(N2CCN(c3ccncc3)CC2)C(=O)N(S(=O)(=O)c2cccc3c(C)ccnc23)c2ccc(C#N)cc21 (racemic) [Example 30, (±)-5-Cyano-3-(6-chloro-2-ethoxypyridin-3-yl)-1-(4-methylquinoline-8-sulfonyl)-3-(4-pyridin-4-ylpiperazin-1-yl)-2,3-dihydro-1H-indol-2-one]	10 to 50
CCOc1ccc(OC)cc1C1(N2CCCN(c3ccnc(C)c3)CC2)C(=O)N(S(=O)(=O)c2cccc3cccnc23)c2ccc(C#N)cc21 (racemic) [Example 62, (±)-5-Cyano-3-(2-ethoxy-5-methoxyphenyl)-3-[4-(2-methylpyridin-4-yl)-[1,4]diazepan-1-yl]-1-(quinoline-8-sulfonyl)-2,3-dihydro-1H-indol-2-one]	< 10
CCOc1ccc(OC)cc1C1(N2CCN(c3ccnc(C(C)C)c3)CC2)C(=O)N(S(=O)(=O)c2ccc(OC)cn2)c2ccc(C#N)cc21 (single isomer, unassigned; (+)) [Example 143, (+)-5-Cyano-3-(2-ethoxy-5-methoxy-phenyl)-3-[4-(2-isopropyl-pyridin-4-yl)-piperazin-1-yl]-1-(5-methoxy-pyridine-2-sulfonyl)-2,3-dihydro-1H-indol-2-one]	< 10
CCOc1ccc(OC)cc1C1(N2CC3CN(c4ccncc4)CC3C2)C(=O)N(S(=O)(=O)c2ccc(OC)cn2)c2ccc(C#N)cc21 (racemic) [Example 68, (±)-5-Cyano-3-(2-ethoxy-5-methoxyphenyl)-1-(5-methoxypyridine-2-sulfonyl)-3-(5-pyridin-4-ylhexahydropyrrolo[3,4-c]pyrrol-2-yl)-2,3-dihydro-1H-indol-2-one]	< 10
CCOc1c(OC)cccc1C1(N2CCN(c3ccnc(C(C)C)c3)CC2)C(=O)N(S(=O)(=O)c2ccc(OC)cn2)c2ccc(C#N)cc21 (racemic) [Example 173, (±)-5-Cyano-3-(2-ethoxy-3-methoxy-phenyl)-3-[4-(2-isopropyl-pyridin-4-yl)-piperazin-1-yl]-1-(5-methoxy-pyridine-2-sulfonyl)-2,3-dihydro-1H-indol-2-one]	< 10
CCOc1cc(F)ccc1C1(N2CCN(c3ccncc3)CC2)C(=O)N(S(=O)(=O)c2ccc(OC)cn2)c2ccc(C#N)cc21 (racemic) [Example 32, (±)-5-Cyano-3-(2-ethoxy-4-fluorophenyl)-1-(5-methoxypyridine-2-sulfonyl)-3-(4-pyridin-4-ylpiperazin-1-yl)-2,3-dihydro-1H-indol-2-one]	< 10
CCOc1ccc(OC)cc1C1(N2CCN(C3CCNCC3)CC2)C(=O)N(S(=O)(=O)c2ccc(OC)cn2)c2ccc(C#N)cc21 (single isomer, unassigned; (+)) [Example 140, (+)-5-Cyano-3-(2-ethoxy-5-methoxy-phenyl)-1-(5-methoxy-pyridine-2-sulfonyl)-3-(4-piperidin-4-yl-piperazin-1-yl)-2,3-dihydro-1H-indol-2-one]	< 10
CCOc1ccccc1C1(N2CCN(c3ccncc3)CC2)C(=O)N(S(=O)(=O)c2ccc(Cl)c3cccnc23)c2ccc(C#N)cc21 (racemic) [Example 12, (±)-5-Cyano-1-(5-chloroquinoline-8-sulfonyl)-3-(2-ethoxyphenyl)-3-(4-pyridin-4-yl-piperazin-1-yl)-2,3-dihydro-1H-indol-2-one]	10 to 50
CCOc1nc(Cl)ccc1C1(N2CCN(c3ccnc(C)c3)CC2)C(=O)N(S(=O)(=O)c2cccc3cccnc23)c2ccc(C#N)cc21 (racemic) [Example 27, (±)-5-Cyano-3-(6-chloro-2-ethoxypyridin-3-yl)-3-[4-(2-methylpyridin-4-yl)-piperazin-1-yl]-1-(quinoline-8-sulfonyl)-2,3-dihydro-1H-indol-2-one]	10 to 50
CCOc1ccc(OC)cc1C1(N2CCN(c3ccnc(C)c3)CC2)C(=O)N(S(=O)(=O)c2ccc(OC)c3cccnc23)c2ccc(C#N)cc21 (racemic) [Example 33, (±)-5-Cyano-3-(2-ethoxy-5-methoxyphenyl)-1-(5-methoxyquinoline-8-sulfonyl)-3-[4-(2-methylpyridin-4-yl)piperazin-1-yl]-2,3-dihydro-1H-indol-2-one]	< 10
CCOc1ccc(CC)cc1C1(N2CCN(c3ccnc(C(C)C)c3)CC2)C(=O)N(S(=O)(=O)c2ccc(OC)cn2)c2ccc(C#N)cc21 (racemic) [Example 166, (±)-5-Cyano-3-(2-ethoxy-5-ethyl-phenyl)-3-[4-(2-isopropyl-pyridin-4-yl)-piperazin-1-yl]-1-(5-methoxy-pyridine-2-sulfonyl)-2,3-dihydro-1H-indol-2-one]	< 10
CCOc1ccccc1C1(N2CCN(c3ccncc3)C(C)C2)C(=O)N(S(=O)(=O)c2cccc3cccnc23)c2ccc(C#N)cc21 (racemic) [Example 17, (±)-5-Cyano-3-(2-ethoxyphenyl)-3-(3-methyl-4-pyridin-4-ylpiperazin-1-yl)-1-(quinoline-8-sulfonyl)-2,3-dihydro-1H-indol-2-one]	10 to 50
CCOc1ccc(OC)cc1C1(N2CC3CN(c4ccncc4)CC3C2)C(=O)N(S(=O)(=O)c2ccc(OC)c3cccnc23)c2ccc(C#N)cc21 (racemic) [Example 74, (±)-5-Cyano-3-(2-ethoxy-5-methoxyphenyl)-1-(5-methoxyquinoline-8-sulfonyl)-3-(5-pyridin-4-ylhexahydropyrrolo[3,4-c]pyrrol-2-yl)-2,3-dihydro-1H-indol-2-one]	10 to 50
CCOc1cc(OC)ccc1C1(N2CCC(N3CCN(C)CC3)CC2)C(=O)N(S(=O)(=O)c2ccc(OC)cn2)c2ccc(C#N)cc21 (racemic) [Example 171, (±)-5-Cyano-3-(2-ethoxy-4-methoxy-phenyl)-1-(5-methoxy-pyridine-2-sulfonyl)-3-[4-(4-methyl-piperazin-1-yl)-piperidin-1-yl]-2,3-dihydro-1H-indol-2-one]	< 10
CCOc1ccccc1C1(N2CCN(c3ccncc3)CC2)C(=O)N(S(=O)(=O)c2cccc3cccnc23)c2ccc(C#N)cc21 (single isomer, unassigned; (+)) [Example 60, (+)-5-Cyano-3-(2-ethoxyphenyl)-3-(4-pyridin-4-ylpiperazin-1-yl)-1-(quinolin-8-sulfonyl)-2,3-dihydro-1H-indol-2-one]	< 10
